Measurements published in ChEMBL document CHEMBL4823274, “Discovery of chiral N-2'-aryletheryl-1'-alkoxy-ethyl substituted arylisoquinolones with anti-inflammatory activity from the nucleophilic addition reactions of the thiophenols and oxazolinium” (Eur J Med Chem, 2021).
Calls of active or inactive are those of the source. The calls are words filed in the database; no cut-off is given here.

Legend:
RAW264.7 [1] = assay: Antiinflammatory activity against LPS-stimulated mouse RAW264.7 cells assessed inhibition of TNFalpha release incubated for 24 hrs in presence of LPS by ELISA; type: functional, cell-based; details: RAW264.7, 24 h
[2] = Cytotoxicity against mouse RAW264.7 cells assessed as reduction in cell viability incubated for 24 hrs by CCK8 assay; type: cell-based
[3] = Cytotoxicity against mouse RAW264.7 cells assessed as cell viability at 0.5 uM incubated for 24 hrs by CCK8 assay; type: cell-based; details: read-out: Activity
RAW264.7 [4] = assay: Antiinflammatory activity against LPS-stimulated mouse RAW264.7 cells assessed inhibition of TNFalpha release at 0.5 uM incubated for 24 hrs in presence of LPS by ELISA; type: functional
Mus musculus [5] = assay: Antiinflammatory activity against DSS-induced ulcerative colitis C57BL/6J mouse model assessed as reduction in body weight loss at 30 mg/kg, po administered daily via gavage and measured for 11 days; type: functional, organism-based; details: time 11.0 day
Mus musculus [6] = assay: Antiinflammatory activity against DSS-induced ulcerative colitis C57BL/6J mouse model assessed as reduction in disease activity index at 30 mg/kg, po administered daily via gavage and measured for 11 days; type: functional, organism-based; details: time 11.0 day
Homo sapiens [7] = species on record: Homo sapiens; assay: Selectivity ratio of relative binding affinity for human ERalpha LBD to relative binding affinity for human ERbeta LBD
Mus musculus [8] = assay: Antiinflammatory activity against DSS-induced ulcerative colitis C57BL/6J mouse model assessed as restoration of normal stool consistency at 30 mg/kg, po administered daily via gavage and measured for 11 days; type: functional, organism-based; details: time 11.0 day
Estrogen receptor beta [9] = target: T1, Estrogen receptor beta (Homo sapiens, UniProt Q92731); assay: Binding affinity to human ERbeta LBD measured after 2 hrs by competitive fluorometric binding assay relative to 17beta-estradiol
T1 sequence (Q92731 whole entry, the tested form may be a part): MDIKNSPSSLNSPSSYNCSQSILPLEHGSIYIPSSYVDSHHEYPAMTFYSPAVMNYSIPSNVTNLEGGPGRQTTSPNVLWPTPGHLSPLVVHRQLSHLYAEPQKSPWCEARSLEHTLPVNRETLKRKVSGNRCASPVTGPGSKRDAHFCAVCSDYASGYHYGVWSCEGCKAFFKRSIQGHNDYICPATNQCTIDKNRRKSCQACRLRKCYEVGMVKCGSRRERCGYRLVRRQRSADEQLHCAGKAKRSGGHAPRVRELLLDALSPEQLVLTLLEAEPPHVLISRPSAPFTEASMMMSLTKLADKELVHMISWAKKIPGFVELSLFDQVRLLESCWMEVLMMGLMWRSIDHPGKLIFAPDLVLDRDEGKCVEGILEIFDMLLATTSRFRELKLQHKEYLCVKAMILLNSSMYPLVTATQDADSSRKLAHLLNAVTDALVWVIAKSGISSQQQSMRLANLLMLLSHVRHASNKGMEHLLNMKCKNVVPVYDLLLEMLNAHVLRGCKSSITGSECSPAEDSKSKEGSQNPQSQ

Mus musculus [10] = assay: Antiinflammatory activity against DSS-induced ulcerative colitis C57BL/6J mouse model assessed as reduction in fecal occult blood at 30 mg/kg, po administered daily via gavage and measured for 11 days; type: functional, organism-based; details: time 11.0 day
Estrogen receptor beta [11] = target: T1, Estrogen receptor beta; assay: Binding affinity to human ERbeta LBD measured after 2 hrs by competitive fluorometric binding assay
Homo sapiens [12] = species on record: Homo sapiens; assay: Selectivity ratio of Ki for human ERalpha LBD to Ki for human ERbeta LBD
Estrogen receptor = target: T2, Estrogen receptor (Homo sapiens, UniProt P03372); assay: Binding affinity to human ERalpha LBD measured after 2 hrs by competitive fluorometric binding assay
T2 sequence (P03372 whole entry): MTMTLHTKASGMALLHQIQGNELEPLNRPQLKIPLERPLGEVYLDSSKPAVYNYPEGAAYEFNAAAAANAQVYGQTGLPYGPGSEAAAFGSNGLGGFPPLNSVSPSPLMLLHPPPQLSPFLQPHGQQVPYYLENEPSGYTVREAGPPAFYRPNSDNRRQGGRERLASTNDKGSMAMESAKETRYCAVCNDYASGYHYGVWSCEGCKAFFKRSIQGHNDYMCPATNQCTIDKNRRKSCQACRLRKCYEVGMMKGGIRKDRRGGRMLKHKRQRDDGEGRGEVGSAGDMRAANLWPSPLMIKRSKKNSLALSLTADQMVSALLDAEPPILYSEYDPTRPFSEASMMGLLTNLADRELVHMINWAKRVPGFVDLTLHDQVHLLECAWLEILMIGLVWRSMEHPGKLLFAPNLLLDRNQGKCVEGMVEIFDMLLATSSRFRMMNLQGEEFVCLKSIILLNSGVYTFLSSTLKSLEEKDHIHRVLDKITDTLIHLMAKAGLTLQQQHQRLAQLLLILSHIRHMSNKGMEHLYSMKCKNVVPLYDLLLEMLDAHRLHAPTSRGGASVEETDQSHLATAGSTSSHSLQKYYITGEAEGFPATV

[13] = target: T3, Estrogen receptor (Homo sapiens) (UniProt P03372); assay: Binding affinity to human ERalpha LBD measured after 2 hrs by competitive fluorometric binding assay relative to 17beta-estradiol
T3 sequence (whole entry): T2 sequence (P03372 whole entry)

COc1ccc2cc(-c3ccc4c(c3)OCO4)n([C@@H](CSc3ccc([N+](=O)[O-])cc3)OC)c(=O)c2c1OC
IC50 (RAW264.7 [1]): 0.056 µM | CC50 at 24 h [2]: 7.04 µM

COc1ccc2cc(-c3ccc4c(c3)OCO4)n(C(CSc3cccc(Br)c3)OC)c(=O)c2c1OC (centres undefined)
viability at 24 h, 0.5 µM [3]: 57% | inhibition at 0.5 µM (RAW264.7 [4]): 36.1%

COc1ccc2cc(-c3ccc4c(c3)OCO4)n(C(CSc3ccc(Br)cc3)OC)c(=O)c2c1OC (centres undefined)
viability at 24 h, 0.5 µM [3]: 70.9% | inhibition at 0.5 µM (RAW264.7 [4]): 84.5%

COc1ccc2cc(-c3ccc4c(c3)OCO4)n(C(CSc3ccc(C(F)(F)F)cc3)OC)c(=O)c2c1OC (centres undefined)
viability at 24 h, 0.5 µM [3]: 98% | inhibition at 0.5 µM (RAW264.7 [4]): 72.9%

COc1ccc2cc(-c3ccc4c(c3)OCO4)n(C(CSc3nc(C)cc(C)n3)OC)c(=O)c2c1OC (centres undefined)
viability at 24 h, 0.5 µM [3]: 101% | inhibition at 0.5 µM (RAW264.7 [4]): 69.7%

COc1ccc2cc3[n+](cc2c1OC)CCc1cc2c(cc1-3)OCO2 [BERBERINE]
viability at 24 h, 0.5 µM [3]: 129% | inhibition at 0.5 µM (RAW264.7 [4]): 4.1%

COc1ccc2cc(-c3ccc4c(c3)OCO4)n(C(CSc3ccc(C)cc3)OC)c(=O)c2c1OC (centres undefined)
viability at 24 h, 0.5 µM [3]: 70.4% | inhibition at 0.5 µM (RAW264.7 [4]): 79.6%

COc1ccc2cc(-c3ccc4c(c3)OCO4)n(C(CSc3ccccc3)OC)c(=O)c2c1OC (centres undefined)
viability at 24 h, 0.5 µM [3]: 85.4% | inhibition at 0.5 µM (RAW264.7 [4]): 49.4%

COc1ccc2cc(-c3ccc4c(c3)OCO4)n(C(CSc3ccc(F)cc3)OC)c(=O)c2c1OC (centres undefined)
viability at 24 h, 0.5 µM [3]: 77.8% | inhibition at 0.5 µM (RAW264.7 [4]): 77.4%

COc1ccc2cc(-c3ccc4c(c3)OCO4)n(C(CSc3cccc(C(F)(F)F)c3)OC)c(=O)c2c1OC (centres undefined)
viability at 24 h, 0.5 µM [3]: 93.3% | inhibition at 0.5 µM (RAW264.7 [4]): 69.2%

COc1ccc2cc(-c3ccc4c(c3)OCO4)n([C@@H](COc3ccc([N+](=O)[O-])cc3)OC)c(=O)c2c1OC
Activity (Mus musculus [5]): Active | IC50 (RAW264.7 [1]): 0.014 µM | Activity (Mus musculus [6]): Active | Ratio (Homo sapiens [7]): 0.23 | Activity (Mus musculus [8]): Active | RBA (Estrogen receptor beta [9]): 1.04% | CC50 at 24 h [2]: 1.82 µM | Activity (Mus musculus [10]): Active | Ki (Estrogen receptor beta [11]): 0.761 µM | Ratio Ki (Homo sapiens [12]): 3 | Ki (Estrogen receptor): 2.32 µM | RBA [13]: 0.24%

COc1ccc2cc(-c3ccc4c(c3)OCO4)n([C@H](CSc3ccc([N+](=O)[O-])cc3)OC)c(=O)c2c1OC
IC50 (RAW264.7 [1]): > 2.5 µM | CC50 at 24 h [2]: > 2.5 µM

COc1ccc2cc(-c3ccc4c(c3)OCO4)n(C(CSc3ccc([N+](=O)[O-])cc3)OC)c(=O)c2c1OC (centres undefined)
viability at 24 h, 0.5 µM [3]: 80.1% | inhibition at 0.5 µM (RAW264.7 [4]): 87.8%

COc1ccc2cc(-c3ccc4c(c3)OCO4)n([C@H](COc3ccc([N+](=O)[O-])cc3)OC)c(=O)c2c1OC
IC50 (RAW264.7 [1]): > 10 µM | Ratio (Homo sapiens [7]): 1 | RBA (Estrogen receptor beta [9]): 0.03% | CC50 at 24 h [2]: > 2.5 µM | Ki (Estrogen receptor beta [11]): 25.6 µM | Ki (Estrogen receptor): 17.1 µM | RBA [13]: 0.03%

COc1ccc(SCC(OC)n2c(-c3ccc4c(c3)OCO4)cc3ccc(OC)c(OC)c3c2=O)cc1 (centres undefined)
viability at 24 h, 0.5 µM [3]: 80.8% | inhibition at 0.5 µM (RAW264.7 [4]): -3.4%

COc1ccc2cc(-c3ccc4c(c3)OCO4)n(C(CSc3ccccc3Br)OC)c(=O)c2c1OC (centres undefined)
viability at 24 h, 0.5 µM [3]: 80.7% | inhibition at 0.5 µM (RAW264.7 [4]): 80.7%

COc1ccc2cc(-c3ccc4c(c3)OCO4)n(C(CSc3cc(C(F)(F)F)cc(C(F)(F)F)c3)OC)c(=O)c2c1OC (centres undefined)
viability at 24 h, 0.5 µM [3]: 82.8% | inhibition at 0.5 µM (RAW264.7 [4]): 78.3%
